Test results: paper PMC2652713, “Molecular Blocking of CD23 Supports Its Role in the Pathogenesis of Arthritis” (PLoS ONE, 2009)
“Also recorded” adds a separate entry of the source.

How the values were obtained:
[1] = tested on: peritoneal macrophages of AIA rats; assay: Ex vivo cytokine release from peritoneal macrophages of treated AIA rats, ELISA; format: in vivo, rat, Female Lewis; details: cells collected 50 days post-immunization, 48 h culture, 4 rats
Method: AIA rats were treated either after (AIA+p30A) or before (p30A+AIA) the onset of symptoms. Treatment consisted of p30A (10 mg/rat) or hydrocortisone (HC, 30 mg/rat). Rat peritoneal macrophages were collected following 50 days post-immunization, washed and re-incubated in culture medium alone. Cell supernatants were collected 48 h later and cytokine levels were quantified. Macrophages from healthy rats were also incubated in similar conditions. Values are mean±s.d. of cells from 4 different rats.
Adjuvant arthritis was induced in six week-old animals by subcutaneous injection at the base of the tail of 300 µl containing 1.8 mg of inactivated Mycobacterium butyricum (Difco Laboratories, Detroit, MI) diluted in emulsion of 8 ml Vaseline, 1 ml polysorbate 80, and 1 ml PBS (Phosphate Buffer Saline, Eurobio). Rats were boosted one week later following the same procedure. Observation was conducted for up to 50 days following immunization for clinical signs of arthritis. Rats were divided in different groups of 8 rats. Groups were treated with five injections (every 2 days) of either p30A (10, 50 or 100 mg in a PBS solution), pCtl, hydrocortisone (Sigma Aldrich) or PBS solution. Injections were initiated two days after the appearance of first arthritic symptoms (therapeutic) or on the first day of immunization (preventive). […] Rats were sacrificed 50 days after AIA induction. Peritoneal macrophages were collected and incubated in culture medium alone for 48 h. Quantification of TNF-α and IL-1β in rat cell supernatants was performed using appropriate ELISA kits and according to manufacturer's recommendations (Biosource, Montrouge, France).

CD23 = CD23 western blot on CD23+ B-cell line extract; format: binding, human; details: CD23+ B cell line extract (50 µg protein), blot pre-incubated with p30A 10 µg/ml (methods: 10, 20 and 40 µg/ml, 2 h)
Method: Figure 1 Specific blockade of CD23 reactivity by p30A. Flow cytometry analysis showing the inhibition of (A) anti-CD23-FITC (20 µg/ml) or (B) IgE (10 µg/ml)/anti-IgE-FITC (1 µg/ml) binding to CD23^+ human PBL-derived macrophages (red lines) or following their pre-incubation with p30A peptides (10 µg/ml) (blue lines). (C) CD23 western blot was performed on total protein extract from à CD23^+ B-cell line. The detection with CD23-McAb followed the pre-incubation of the blot with or without p30A (10 µg/ml). Similar protein quantity (50 µg) was used for each western blot condition.
Total cellular proteins were isolated from CD23^+, ADAM B-cell line in cell lysis buffer (10 mM Tris pH 8.0, 150 mM NaCl, 5 mM EDTA, 1% Triton X-100, 0.05% SDS, 10 mM Sodium Fluoride, 1 mM Sodium Orthovanadate, 5 µM Molibdic Acid) and a mixture of protease inhibitors (all from Sigma Aldrich, Saint Quentin Fallavier, France). Protein concentration was determined using the Bradford assay (Bio Rad, Hemel Hempstead, UK). Protein samples (50 µg total protein) were subjected to SDS-PAGE using a 12% resolving gel. […] Immunoreactive bands (CD23 and Bcl2) were detected using the FluorChem 8800 (Alpha Innotech, San Leandro, USA) and semi-quantified by densitometry using AlphaEase FC (Alpha Innotech).

[2] = tested on: human CD23+ monocyte-derived macrophages; assay: Nitrite (NO) generation by CD23-activated human macrophages, Griess reaction; format: cell-based
Method: Figure 2 Inhibition of CD23-mediated activation of iNOS pathway in human macrophages by p30A. Human CD23^+ monocyte-derived macrophages were incubated with cross-linking CD23-McAb (20 µg/ml) alone or following 1 h pre-incubation with 10 µg/ml of various peptides. […] Expression of iNOS mRNA was compared to HPRT mRNA levels. (B) Inhibition of NO generation from human activated macrophages by synthetic peptides. Cell supernatants were collected 72 h following cell cultures and levels of nitrites were determined. […] Results are expressed as mean of 3 distinct donor cell preparations (SEM<20%). (C) Inducible NOS-mediated NO generation in human macrophages is decreased following pre-incubation with p30A or L-NIL prior to CD23-mediated activation. Results are expressed as mean±s.d. of 7 distinct donor cell preparations.
Monocytes or macrophages were activated through CD23 pathway: while monocytes/macrophages from RA patients express CD23, monocytes from healthy donors must be pre-activated to express surface CD23 as described. This pre-activation was obtained by incubation of healthy monocytes with recombinant human IL-4 (20 ng/ml) during 48 h at 37°C; After washing, all cell populations were tested by flow cytometry for their surface CD23 expression (>80% CD23^+) and then incubated in the presence of cross-linking CD23-MAb (clones 135 or DM2, IgG1k, 20 µg/ml) during 48–72 h, or IgE and anti-IgE as described, [17]. When indicated, peptides were added to the cells 2 h prior to their activation. Cells supernatants were then analyzed for their nitric oxide content (see below) and for the presence of cytokines: levels of TNF-α and IL-6 were determined in duplicates for each sample by a specific ELISA (R&D, Paris, France) while levels of IL-1β, IL-8 and IL-10 was determined using FlowCytomix Human Th1/Th2 Kit as recommended (Bender Medsystems, Vienna, Austria).
Culture supernatants (72 h) were assayed for the stable end-product of NO, NO2 ^− using the Griess reaction modified as detailed elsewhere. Inhibitory analog of L-arginine, L-NIL (N(6)-(1-iminoethyl)-L-lysine/2HCl, Coger SA, Paris, France) was used to inhibit iNOS-mediated NO generation. This method gave a sensitivity limit of 0.2 µM if low NO2 ^− medium (DMEM) was used. Total RNA was isolated as above from peritoneal macrophages. Reverse transcription-PCR was performed with an automatic thermal cycler (iCycler, Biorad) using the following specific primers: iNOS mRNA sense (5′-[…]-3′, exon 8) and iNOS mRNA antisense (5′-[…]-3′, exon 11). Hypoxanthine phosphoribosyltransferase (HPRT) mRNA sense (5′-[…]-3′) and HPRT mRNA antisense (5′-[…]- 3′) primers were used as controls. The iNOS messenger is represented by a 371-bp band, whereas a 496-bp band indicates the HPRT messenger.

[3] = treatment before onset of symptoms (p30A+AIA, 10 mg/rat)

Substance: FHENWPS [p30A]
- TNFα release ex vivo, therapeutic ([1]; treatment after onset of symptoms (AIA+p30A, 10 mg/rat)): dramatically reduced both IL-1β and TNFα levels
- IL-1β release ex vivo, therapeutic ([1]; treatment after onset of symptoms (AIA+p30A, 10 mg/rat; HC 30 mg/rat)): dramatically reduced both IL-1β and TNFα levels
- IL-1β release ex vivo, preventive [1, 3]: dramatically reduced both IL-1β and TNFα levels
- TNFα release ex vivo, preventive [1, 3]: dramatically reduced both IL-1β and TNFα levels
- block of detection of CD23 protein by CD23-McAb (CD23): block
- NO (nitrite) generation, dose-dependence ([2]; CD23-McAb 20 µg/ml, 1 h pre-incubation with peptide, supernatants at 72 h, mean of 3 donors (SEM<20%)): reversed by p30A in a dose-dependent manner; also recorded: Dose-dependent reduction of nitrites
- iNOS-mediated NO generation ([2]; pre-incubation prior to CD23-mediated activation, mean±s.d. of 7 donors (Figure 2C)): decreased
